Assay results published in ChEMBL document CHEMBL6078682, “Circumventing Imatinib resistance in CML: Novel Telmisartan-based cell death modulators with improved activity and stability” (Eur J Med Chem, 2025).
≈ marks a conversion by molar mass, not a printed value. Calls of active or inactive are those of the source. The rule behind the calls is not given here.

Assays:
K562 [1] = experiment: Re-sensitization of human K562 cells to imatinib assessed as reduction in metabolic activity by measuring maximal sensitizing concentration in presence of imatinib by EZ4U assay; type: functional, cell-based; conditions: read-out: EC50
[2] = Cytotoxicity against human HS5 cells assessed as effect on metabolic activity at 10 uM incubated for 72 hrs by MTT assay; type: toxicity, cell-based; conditions: hs5, 72 h
K562-IMA[r] = experiment: Cytotoxicity against human Imatinib-resistant K562 cells assessed as effect on metabolic activity at 10 uM incubated for 72 hrs by MTT assay; type: functional, cell-based
[3] = Retention time of compound by HPLC analysis; type: physicochemical
COS-7 = experiment: Cytotoxicity against african green monkey COS-7 cells assessed as effect on metabolic activity at 10 uM incubated for 72 hrs by MTT assay; type: toxicity, cell-based; conditions: chlorocebus aethiops, cos-7, 72 h
[4] = Stability of the compound assessed as Pseudomonas aeruginosa Amidase-mediated hydrolysis at 800 uM measured after 24 hrs by HPLC analysis; type: ADME; conditions: isolated protein
[5] = Stability of compound in PBS buffer incubated for 8 to 24 hrs by HPLC analysis; type: physicochemical; conditions: time 8-24 hrs
K562 [6] = experiment: Re-sensitization of human K562 cells to imatinib assessed as reduction in metabolic activity at 5 uM in presence of 1 uM imatinib by EZ4U assay; type: functional, cell-based
amidase = experiment: Stability of the compound assessed as Pseudomonas aeruginosa Amidase-mediated hydrolysis by measuring half life at 800 uM measured after 24 hrs by HPLC analysis; type: ADME
[7] = Stability in cell culture medium containing fetal bovine serum assessed as compound remaining at 200 uM at 37 degreeC measured after 72 hrs by RP-HPLC analysis; type: ADME, cell-free; conditions: cattle, read-out: Stability
Liver carboxylesterase [8] = biological target: T1, Liver carboxylesterase (Sus scrofa, UniProt Q29550); experiment: Stability of the compound assessed as porcine liver esterase-mediated hydrolysis at 800 uM measured after 180 mins by HPLC analysis; type: ADME; conditions: pig, isolated protein, 3 h
T1 sequence (Q29550 whole entry): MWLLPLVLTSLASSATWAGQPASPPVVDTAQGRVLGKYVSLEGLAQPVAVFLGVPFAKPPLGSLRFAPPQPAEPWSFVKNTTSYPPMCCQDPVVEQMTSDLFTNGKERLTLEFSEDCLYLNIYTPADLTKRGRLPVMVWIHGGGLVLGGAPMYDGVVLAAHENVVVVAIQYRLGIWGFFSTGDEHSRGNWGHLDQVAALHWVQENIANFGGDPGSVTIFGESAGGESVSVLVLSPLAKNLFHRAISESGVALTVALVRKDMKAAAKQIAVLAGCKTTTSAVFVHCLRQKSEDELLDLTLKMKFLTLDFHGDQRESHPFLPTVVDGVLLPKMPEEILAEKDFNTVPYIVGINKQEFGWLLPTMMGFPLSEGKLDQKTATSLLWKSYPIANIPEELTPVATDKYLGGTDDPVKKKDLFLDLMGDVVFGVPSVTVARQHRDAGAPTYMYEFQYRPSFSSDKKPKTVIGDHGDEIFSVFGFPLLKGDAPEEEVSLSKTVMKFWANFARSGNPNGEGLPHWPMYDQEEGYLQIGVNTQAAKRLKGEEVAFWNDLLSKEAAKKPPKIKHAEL

K562 [9] = experiment: Re-sensitization of human K562 cells to imatinib assessed as reduction in metabolic activity at 10 uM in presence of imatinib by EZ4U assay; type: functional, cell-based
[10] = Drug uptake in human Imatinib-resistant K562 cells assessed as increase in fluorescent intensity measured after 3 hrs by coomassie brilliant blue staining based analysis; type: ADME, cell-based; conditions: k562-ima[r]
K562 [11] = experiment: Re-sensitization of human K562 cells to imatinib assessed as reduction in metabolic activity at 5 uM in presence of imatinib by EZ4U assay; type: functional, cell-based
[12] = Drug uptake in human Imatinib-resistant K562 cells assessed as increase in fluorescent intensity measured after 1 hr by coomassie brilliant blue staining based analysis; type: ADME, cell-based; conditions: k562-ima[r]
[13] = Drug uptake in human Imatinib-resistant K562 cells assessed as increase in fluorescent intensity measured after 24 hrs by coomassie brilliant blue staining based analysis; type: ADME, cell-based; conditions: k562-ima[r]
Liver carboxylesterase [14] = biological target: T1, Liver carboxylesterase; experiment: Stability of the compound assessed as porcine liver esterase-mediated hydrolysis by measuring half life at 800 uM measured after 180 mins by HPLC analysis; type: ADME; conditions: pig
[15] = Drug uptake in human Imatinib-resistant K562 cells assessed as increase in fluorescent intensity measured after 1 to 24 hrs by coomassie brilliant blue staining based analysis; type: ADME, cell-based; conditions: k562-ima[r], time 1-24 hrs
[16] = Stability of the compound assessed as Pseudomonas aeruginosa Amidase-mediated hydrolysis at 800 uM measured after 6 hrs by HPLC analysis; type: ADME; conditions: isolated protein
[17] = Drug uptake in human Imatinib-resistant K562 cells assessed as increase in fluorescent intensity measured at 24 hrs by coomassie brilliant blue staining based analysis; type: ADME, cell-based; conditions: k562-ima[r]
[18] = Solubility of compound in DMSO measured for 30 mins by UV-spectroscopy analysis; type: physicochemical

| SMILES | maximal sensitizing concentration (K562 [1]) [nM] | Activity [2] | Activity (K562-IMA[r]) | Retention_time [3] [min] | Activity (COS-7) | Stability [5] | Activity (K562 [6]) | remaining at 72 h, 200 µM [7] [%] | Stability (Liver carboxylesterase [8]) | half-life at 800 µM (Liver carboxylesterase [14]) [min] | other results |
| --- | --- | --- | --- | --- | --- | --- | --- | --- | --- | --- | --- |
| CCCc1nc2ccccc2n1Cc1ccc(-c2ccccc2C(=O)NCC)cc1 | 6200 | Non-toxic | inactive | < 10.3 | Non-toxic | Stable | Active | 95.1 | Stable |  | Stability [4]: Stable; half-life at 800 µM (amidase): 3900 min |
| CCCc1nc2ccccc2n1Cc1ccc(-c2ccccc2C(=O)O)cc1 |  |  |  | 10.8 |  |  |  |  |  |  | Activity (K562 [9]): Active |
| CCCc1nc2ccccc2n1Cc1ccc(-c2ccccc2C(=O)OC)cc1 | 2400 | Non-toxic | inactive | 12.4 | Non-toxic | Stable |  | 67.8 |  | 55 | Drug uptake [10]: 3.5 nmol/mg; Activity (K562 [11]): Active; Drug uptake [12]: 3 nmol/mg; Drug uptake [13]: 4.7 nmol/mg |
| CCCc1nc2ccccc2n1Cc1ccc(-c2ccccc2C(=O)OC(C)(C)C)cc1 | 2900 | Non-toxic | inactive | 13.4 | Non-toxic | Stable | Active | 97.2 |  |  |  |
| CCCCOC(=O)c1ccccc1-c1ccc(Cn2c(CCC)nc3ccccc32)cc1 | 1600 | Non-toxic | inactive | < 13.8 | Non-toxic | Stable | Active | 78 |  | 82.2 |  |
| CCCc1nc2ccccc2n1Cc1ccc(-c2ccccc2C(=O)NC)cc1 | 11200 | Non-toxic | inactive | 9.9 | Non-toxic | Stable | inactive | 93.4 | Stable |  | Drug uptake [15]: Not_active; Drug uptake [13]: Not_active; Stability [4]: Stable; half-life at 800 µM (amidase): 2020 min |
| CCCc1nc2ccccc2n1Cc1ccc(-c2ccccc2C(=O)OC(C)C)cc1 | 2200 | Non-toxic | inactive | 13.1 | Non-toxic | Stable | Active | 91.9 |  |  |  |
| CCCc1nc2ccccc2n1Cc1ccc(-c2ccccc2C(=O)Oc2ccccc2)cc1 | 1500 | Non-toxic | inactive | 13.7 | Non-toxic | Stable | Active | 94.8 |  | 280 | Drug uptake [10]: 13.1 nmol/mg; Drug uptake [13]: 15.7 nmol/mg |
| CCCCNC(=O)c1ccccc1-c1ccc(Cn2c(CCC)nc3ccccc32)cc1 | 1300 | Non-toxic | inactive | < 11.6 | Non-toxic | Stable | Active | 97.1 | Stable |  | Stability [16]: Stable |
| CCCc1nc2ccccc2n1Cc1ccc(-c2ccccc2C(=O)NC(C)C)cc1 | 4800 | Non-toxic | inactive | 10.8 | Non-toxic | Stable | Active | 99.1 |  |  |  |
| CCCc1nc2ccccc2n1Cc1ccc(-c2ccccc2C(=O)NC(C)(C)C)cc1 | 5200 | Non-toxic | inactive | 11.5 | Non-toxic | Stable | Active | 100 | Stable |  | Stability [16]: Stable |
| CCCc1nc2ccccc2n1Cc1ccc(-c2ccccc2C(=O)Nc2ccccc2)cc1 | 1600 | Non-toxic | inactive | 12 | Non-toxic | Stable | Active | 98.4 | Stable |  | Drug uptake [10]: 2.7 nmol/mg; Drug uptake [12]: 1.9 nmol/mg; Drug uptake [17]: 14.5 nmol/mg; Stability [16]: Stable |
| CCCc1nc2ccccc2n1Cc1ccc(-c2ccccc2C(=O)Oc2ccc(Oc3ccccc3)cc2)cc1 | 2500 | Non-toxic | inactive | 15.2 | Non-toxic | Stable | Active | 99.8 |  | 370 | solubility at 0.5 h [18]: 22 mM (≈ 11.9 mg/mL) |
| CCCNC(=O)c1ccccc1-c1ccc(Cn2c(CCC)nc3ccccc32)cc1 | 4500 | Non-toxic | inactive | < 11.1 | Non-toxic | Stable | Active | 95.1 |  |  |  |
| CCCc1nc2ccccc2n1Cc1ccc(-c2ccccc2C(=O)Oc2ccc(-c3ccccc3)cc2)cc1 |  |  |  | 15.3 |  | Stable |  |  |  |  | solubility at 0.5 h [18]: 16 mM (≈ 8.36 mg/mL) |
| CCCc1nc2ccccc2n1Cc1ccc(-c2ccccc2C(=O)OCC)cc1 | 2100 | Non-toxic | inactive | < 12.8 | Non-toxic | Stable | Active | 71.9 |  | 63.3 |  |
| CCCc1nc2ccccc2n1Cc1ccc(-c2ccccc2C(=O)Nc2ccc(Oc3ccccc3)cc2)cc1 | 1300 | Non-toxic | inactive | 13.6 | Non-toxic | Stable | Active | 102 | Stable |  | Stability [16]: Stable |
| CCCOC(=O)c1ccccc1-c1ccc(Cn2c(CCC)nc3ccccc32)cc1 | 1800 | Non-toxic | inactive | < 13.6 | Non-toxic | Stable | Active | 75.9 |  | 69.4 |  |
